Experimental data from patent US20130317055A1, “NEURONAL NICOTINIC AGONIST AND METHODS OF USE” (ABBVIE INC., priority 2012, published 2013).

Tested on: clinically stable subjects with schizophrenia
Assay: Clinical Study A (Phase 2a, placebo-controlled): MATRICS Consensus Cognitive Battery (MCCB)
Assay type: in vivo, human
From the text: A Phase 2a proof-of-concept (POC) study in clinically stable subjects with schizophrenia who were clinically stable and received stable doses of atypical antipsychotic therapy. The study was a Phase 2, multi-center, randomized, double-blind, placebo-controlled, parallel group study designed to evaluate the safety and efficacy of doses of (4s)-4-(5-phenyl-1,3,4-thiadiazol-2-yloxy)-1-azatricyclo[3.3.1.1^3,7]decane (Compound A) in clinically stable male and female subjects (ages 20 to 55, inclusive) with a Diagnostic and Statistical Manual of Mental Disorders Fourth Edition, Text Revision (DSM-IV-TR) diagnosis of schizophrenia. Psychiatric diagnoses were confirmed using the Mini-International Neuropsychiatric Interview (MINI) version 6.0.0. The criteria for clinical stability was determined by a combination of retrospective data (over the 4 months prior to the start of Screening, which will be supported by clinical records, patient, identified responsible contact person, and physician interviews), and prospective data assessed during the Prospective Stabilization Period of 28 to 42 days duration.
The study was a Phase 2, multi-center, randomized, double-blind, placebo-controlled, parallel group study designed to evaluate the safety and efficacy of doses of (4s)-4-(5-phenyl-1,3,4-thiadiazol-2-yloxy)-1-azatrieyclo[3.3.1.1^3,7]decane, which is also recognized as Compound A, in treating cognitive deficits in subjects with schizophrenia who were clinically stable and receiving one or two atypical antipsychotic medications. Study drug was administered orally.
The study consisted of a screening period of at least 28 and up to 42 days, a 84-day outpatient treatment period, a 14-day post-treatment period, and a post-treatment follow-up period. The screening period consisted of three visits: Screening Visit 1, Screening Visit 2, and Day −1. Upon completion of Day −1 procedures, eligible subjects were randomized through an Interactive Voice Response/Interactive Web-Based (IVR/IWB) system. Subjects were randomized in an equal ratio to one of three treatment groups (placebo, 10 mg Compound A, or 25 mg Compound A).
Subjects were randomized in a 1:1:1 ratio with placebo, 10 mg QD Compound A, of 25 mg Compound A. Each subject was instructed to take study drug once-daily in the morning for 12 weeks. Each daily dose was preferably taken with food. The subject and investigator were blinded to the treatment assignment throughout the study. The treatment assignments for the study subjects are shown below in Table 1.
The primary endpoint was the MCCB composite score, and the primary endpoint analysis was the change on the MCCB composite score from baseline to endpoint versus placebo. Other secondary measures included the MCCB domains, the NSA-16, the CANTAB cognition battery (measured at different time points from the MCCB), and the UPSA-2. The Positive and Negative Syndrome Scale (PANSS) was included to document stability in schizophrenia symptomatology.
The MCCB was developed by a consortium of academic, industry, the Food and Drug Administration (FDA) and National Institute of Mental Health ([…]) members called Measurement and Treatment Research to Improve Cognition in Schizophrenia (MATRICS). The battery was established in a multiple phase process that involved experts identifying cognitive tests in the literature that had shown deficits in schizophrenia, use of factor analysis to identify key domains of cognitive deficits in schizophrenia, and then empirically identifying the best tests for each domain based on reliability, validity and feasibility for use in clinical trials. The FDA has endorsed the MCCB as an appropriate outcome measure for Phase 3 CDS trials. […]

[1] = 25 mg QD, Change to Week 2, ITT
[2] = 25 mg QD, Change to Week 6, ITT
[3] = 25 mg QD, Change to Week 12, ITT

SMILES: c1ccc(-c2nnc(O[C@@H]3C4CC5C[C@H]3C[N@](C5)C4)s2)cc1 [Compound A, (4s)-4-(5-phenyl-1,3,4-thiadiazol-2-yloxy)-1-azatricyclo[3.3.1.1^3,7]decane]
- MCCB Reasoning and Problem Solving: LS Mean (SE) of Change from Baseline [1]: 1.95 (0.92) T-score
- MCCB Reasoning and Problem Solving: Observed Mean (SD) of change from baseline [1]: 2.00 (6.25) T-score
- MCCB Attention/Vigilance: Difference from Placebo LS Mean (SE) of Difference [2]: 1.71 (1.41) T-score
- MCCB Attention/Vigilance: LS Mean (SE) of Change from Baseline [2]: 0.91 (1.06) T-score
- MCCB Attention/Vigilance: Observed Mean (SD) of change from baseline [2]: 1.09 (9.04) T-score
- MCCB Reasoning and Problem Solving: Difference from Placebo LS Mean (SE) of Difference [2]: 2.22 (1.08) T-score
- MCCB Reasoning and Problem Solving: LS Mean (SE) of Change from Baseline [2]: 2.18 (0.81) T-score
- MCCB Reasoning and Problem Solving: Observed Mean (SD) of change from baseline [2]: 2.11 (7.06) T-score
- MCCB Social Cognition: Difference from Placebo LS Mean (SE) of Difference [2]: −1.21 (1.40) T-score
- MCCB Social Cognition: LS Mean (SE) of Change from Baseline [2]: 0.30 (1.05) T-score
- MCCB Social Cognition: Observed Mean (SD) of change from baseline [2]: 0.06 (8.00) T-score
- MCCB Speed of Processing: Difference from Placebo LS Mean (SE) of Difference [2]: 1.84 (1.08) T-score
- MCCB Speed of Processing: LS Mean (SE) of Change from Baseline [2]: 2.24 (0.80) T-score
- MCCB Speed of Processing: Observed Mean (SD) of change from baseline [2]: 2.56 (5.36) T-score
- MCCB Verbal Learning: Difference from Placebo LS Mean (SE) of Difference [2]: 0.49 (1.18) T-score
- MCCB Verbal Learning: LS Mean (SE) of Change from Baseline [2]: 0.56 (0.88) T-score
- MCCB Verbal Learning: Observed Mean (SD) of change from baseline [2]: 0.41 (9.24) T-score
- MCCB Visual Learning: Difference from Placebo LS Mean (SE) of Difference [2]: −1.00 (1.65) T-score
- MCCB Visual Learning: LS Mean (SE) of Change from Baseline [2]: −1.15 (1.22) T-score
- MCCB Visual Learning: Observed Mean (SD) of change from baseline [2]: −1.06 (9.04) T-score
- MCCB Working Memory: Difference from Placebo LS Mean (SE) of Difference [2]: 2.39 (1.08) T-score
- MCCB Working Memory: LS Mean (SE) of Change from Baseline [2]: 1.88 (0.81) T-score
- MCCB Working Memory: Observed Mean (SD) of change from baseline [2]: 1.69 (7.43) T-score
- MCCB Attention/Vigilance: Difference from Placebo LS Mean (SE) of Difference [3]: 2.85 (1.57) T-score
- MCCB Attention/Vigilance: LS Mean (SE) of Change from Baseline [3]: 0.86 (1.16) T-score
- MCCB Attention/Vigilance: Observed Mean (SD) of change from baseline [3]: 0.88 (9.09) T-score
- MCCB Social Cognition: Difference from Placebo LS Mean (SE) of Difference [3]: −0.40 (1.61) T-score
- MCCB Social Cognition: LS Mean (SE) of Change from Baseline [3]: 0.19 (1.19) T-score
- MCCB Social Cognition: Observed Mean (SD) of change from baseline [3]: −0.14 (10.81) T-score
- MCCB Speed of Processing: Difference from Placebo LS Mean (SE) of Difference [3]: 0.37 (1.26) T-score
- MCCB Speed of Processing: LS Mean (SE) of Change from Baseline [3]: 1.66 (0.93) T-score
- MCCB Speed of Processing: Observed Mean (SD) of change from baseline [3]: 1.73 (7.28) T-score
- MCCB Verbal Learning: Difference from Placebo LS Mean (SE) of Difference [3]: 1.80 (1.17) T-score
- MCCB Verbal Learning: LS Mean (SE) of Change from Baseline [3]: 2.27 (0.87) T-score
- MCCB Verbal Learning: Observed Mean (SD) of change from baseline [3]: 2.24 (8.03) T-score
- MCCB Visual Learning: Difference from Placebo LS Mean (SE) of Difference [3]: 1.27 (1.68) T-score
- MCCB Visual Learning: LS Mean (SE) of Change from Baseline [3]: 0.83 (1.23) T-score
- MCCB Visual Learning: Observed Mean (SD) of change from baseline [3]: 1.24 (8.49) T-score
- MCCB Working Memory: Difference from Placebo LS Mean (SE) of Difference [3]: 2.03 (1.25) T-score
- MCCB Working Memory: LS Mean (SE) of Change from Baseline [3]: 2.14 (0.93) T-score
- MCCB Working Memory: Observed Mean (SD) of change from baseline [3]: 1.98 (6.84) T-score
- MCCB composite score: LS mean change from baseline (25 mg, baseline to Week 6, MNIRIVI analysis, placebo LS mean +0.49): +1.27
- MCCB domains with LS mean difference versus placebo greater in both dose groups (Week 6, 10 mg and 25 mg): 5 of the 7 MCCB domains
- MCCB composite score: statistical significance of difference from placebo (each dose group (10 mg, 25 mg), Week 6): did not reach the level of statistical significance
- Effect on cognition (patients with schizophrenia, summary statement): precognitive effects
